Values quoted from earlier work in patent publication US20140328789A1, “pH-RESPONSIVE CELL SCAFFOLD AND METHOD OF USING SAME” (Research Foundation of the City University of New York, priority 2013, published 2014).
Values belong to the molecule of their own block, whether it stands above or below them.

Conditions: for pKa1 Monomer: first pKa; for pKa2 Monomer: second pKa; for pKa3 Monomer: third pKa; for pKa: cross-linking agent

Molecule: C=CC(=O)NC(C)C [N-isopropylacrylamide (NIPAM), N-isopropylacrylamide]
pKa Monomer: pKa ≈ 6

Molecule: C=C(C)C(=O)OCCN(C)C [N,N-Dimethylaminoethyl Methacrylate]
pKa Monomer: pKa = 7.3-7.5

Molecule: C=C(C)C(=O)OCCOP(=O)([O-])OCC[N+](C)(C)C [2-methacryloyloxyethyl phosphorylcholine]
pKa1 Monomer: pKa1 = 1.9

Molecule: NCCCC[C@H](N)C(=O)O [lysine]
pKa1 Monomer: 2.2 | pKa2 Monomer: 9.0 | pKa3 Monomer: pKa3 = 10.5

Molecule: albumin
pKa Monomer: pKa = 7.4

Molecule: C=C(CC(=O)O)C(=O)O [itaconic acid]
pKa Monomer: pKa = 4.5

Other lines, results leading:

pKa Monomer: pKa = 7.3
Molecule: C=C(C)C(=O)OCCN(CC)CC [2-diethylaminoethyl methacrylate]

pKa Monomer: pKa = 8.8
Molecule: C=C(C)C(=O)OCCN [aminoethyl methacrylate (AEMA), aminoethyl methacrylate]

pKa Monomer: pKa = 5.5
Molecule: C=C(C)C(=O)OC1CC(C)(C)N([O])C(C)(C)C1 [TEMPO methacrylate]

pKa1 Monomer: 2.2 | pKa2 Monomer: 4.25 | pKa3 Monomer: pKa3 = 9.67
Molecule: N[C@@H](CCC(=O)O)C(=O)O [glutamic acid]

pKa: pKa = 4.65
Molecule: C=C(C)C(=O)OC(=O)C(=C)C [Methacrylic anhydride]

pKa: pKa = 4.61
Molecule: C/C=C/C(=O)OC(=O)/C=C/C [Crotonic anhydride]
